Data reported in ChEMBL document CHEMBL1149542, “Carbonic anhydrase inhibitors: inhibition of human, bacterial, and archaeal isozymes with benzene-1,3-disulfonamides--solution and crystallographic studies” (Bioorg Med Chem Lett, 2007).

Key:
[1] = biological target: Carbonic anhydrase 5A, mitochondrial (Homo sapiens) (UniProt P35218)
[2] = biological target: Carbonic anhydrase 7 (Homo sapiens) (UniProt P43166)
[3] = biological target: Carbonic anhydrase 1 (Homo sapiens) (UniProt P00915)
[4] = biological target: Carbonic anhydrase 6 (Homo sapiens) (UniProt P23280)
[5] = biological target: Carbonic anhydrase 12 (Homo sapiens) (UniProt O43570)
[6] = biological target: Carbonic anhydrase 14 (Homo sapiens) (UniProt Q9ULX7)
[7] = biological target: Carbonic anhydrase 5B, mitochondrial (Homo sapiens) (UniProt Q9Y2D0)
[8] = biological target: Carbonic anhydrase 4 (Homo sapiens) (UniProt P22748)
[9] = biological target: Carbonic anhydrase 9 (Homo sapiens) (UniProt Q16790)
Description: Inhibition of human CA9 catalytic domain

[10] = biological target: Carbonic anhydrase 13 (Mus musculus) (UniProt Q9D6N1); test: Inhibition of mouse CA13
Helicobacter pylori [11] = test system: Helicobacter pylori
Description: Inhibition of Helicobacter pylori alpha CA

Helicobacter pylori [12] = test system: Helicobacter pylori; remark: listed apart in the source
Description: Inhibition of Helicobacter pylori beta CA

[13] = test system: Methanosarcina thermophila
Description: Inhibition of Methanosarcina thermophila gamma CA

Chain of Carbonic anhydrase 5A, mitochondrial (Homo sapiens) (P35218 whole entry): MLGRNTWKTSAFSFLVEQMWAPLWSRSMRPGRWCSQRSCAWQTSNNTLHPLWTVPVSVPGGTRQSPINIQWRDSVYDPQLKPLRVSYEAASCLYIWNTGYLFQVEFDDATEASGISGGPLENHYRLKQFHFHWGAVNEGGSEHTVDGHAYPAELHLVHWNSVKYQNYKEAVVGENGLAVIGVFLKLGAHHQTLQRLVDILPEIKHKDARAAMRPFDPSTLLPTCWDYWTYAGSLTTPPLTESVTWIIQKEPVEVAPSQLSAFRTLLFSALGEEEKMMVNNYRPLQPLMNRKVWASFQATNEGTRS
Chain of Carbonic anhydrase 6 (Homo sapiens) (P23280 whole entry): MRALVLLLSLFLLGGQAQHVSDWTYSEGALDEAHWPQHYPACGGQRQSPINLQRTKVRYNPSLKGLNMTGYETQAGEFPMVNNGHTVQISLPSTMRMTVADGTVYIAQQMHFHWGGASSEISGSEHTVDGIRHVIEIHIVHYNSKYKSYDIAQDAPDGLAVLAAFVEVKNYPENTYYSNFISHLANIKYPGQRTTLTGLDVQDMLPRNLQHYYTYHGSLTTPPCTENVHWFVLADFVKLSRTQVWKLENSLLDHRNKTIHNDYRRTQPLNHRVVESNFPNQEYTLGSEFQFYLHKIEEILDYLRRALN
Chain of Carbonic anhydrase 5B, mitochondrial (Homo sapiens) (Q9Y2D0 whole entry): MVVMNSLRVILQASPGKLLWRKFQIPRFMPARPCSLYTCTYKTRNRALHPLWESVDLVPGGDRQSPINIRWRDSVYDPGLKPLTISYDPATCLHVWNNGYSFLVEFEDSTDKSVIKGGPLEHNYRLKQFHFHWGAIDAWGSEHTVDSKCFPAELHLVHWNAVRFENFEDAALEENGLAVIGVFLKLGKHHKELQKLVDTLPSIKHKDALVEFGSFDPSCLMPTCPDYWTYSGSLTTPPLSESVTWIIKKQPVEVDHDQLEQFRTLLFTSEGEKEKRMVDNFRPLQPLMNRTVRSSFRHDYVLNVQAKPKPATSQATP
Chain of Carbonic anhydrase 14 (Homo sapiens) (Q9ULX7 whole entry): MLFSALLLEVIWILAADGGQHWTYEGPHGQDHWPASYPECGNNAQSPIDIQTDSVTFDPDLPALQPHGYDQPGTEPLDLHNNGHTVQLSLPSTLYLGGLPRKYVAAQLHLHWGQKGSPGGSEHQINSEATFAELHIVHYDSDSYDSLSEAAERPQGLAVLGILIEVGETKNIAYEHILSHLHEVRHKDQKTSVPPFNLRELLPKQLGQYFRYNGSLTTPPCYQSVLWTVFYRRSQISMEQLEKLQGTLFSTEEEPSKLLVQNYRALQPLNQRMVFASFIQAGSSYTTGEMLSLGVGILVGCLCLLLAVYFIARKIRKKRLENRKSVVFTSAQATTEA
Chain of Carbonic anhydrase 13 (Mus musculus) (Q9D6N1 whole entry, looked up): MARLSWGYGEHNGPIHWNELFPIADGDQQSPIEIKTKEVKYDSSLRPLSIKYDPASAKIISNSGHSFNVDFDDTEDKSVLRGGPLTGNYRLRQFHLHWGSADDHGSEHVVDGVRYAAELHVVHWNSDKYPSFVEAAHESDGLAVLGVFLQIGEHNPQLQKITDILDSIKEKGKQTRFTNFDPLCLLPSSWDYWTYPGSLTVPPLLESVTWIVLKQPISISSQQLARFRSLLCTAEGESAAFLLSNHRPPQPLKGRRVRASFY
Chain of Carbonic anhydrase 7 (Homo sapiens) (P43166 whole entry): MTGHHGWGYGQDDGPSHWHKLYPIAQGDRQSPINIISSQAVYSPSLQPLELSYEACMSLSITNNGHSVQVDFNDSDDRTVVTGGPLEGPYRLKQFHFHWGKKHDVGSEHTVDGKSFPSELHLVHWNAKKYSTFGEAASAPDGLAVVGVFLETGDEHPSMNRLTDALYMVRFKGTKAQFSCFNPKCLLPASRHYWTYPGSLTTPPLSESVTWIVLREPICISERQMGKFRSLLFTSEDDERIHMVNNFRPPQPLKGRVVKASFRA
Chain of Carbonic anhydrase 12 (Homo sapiens) (O43570 whole entry): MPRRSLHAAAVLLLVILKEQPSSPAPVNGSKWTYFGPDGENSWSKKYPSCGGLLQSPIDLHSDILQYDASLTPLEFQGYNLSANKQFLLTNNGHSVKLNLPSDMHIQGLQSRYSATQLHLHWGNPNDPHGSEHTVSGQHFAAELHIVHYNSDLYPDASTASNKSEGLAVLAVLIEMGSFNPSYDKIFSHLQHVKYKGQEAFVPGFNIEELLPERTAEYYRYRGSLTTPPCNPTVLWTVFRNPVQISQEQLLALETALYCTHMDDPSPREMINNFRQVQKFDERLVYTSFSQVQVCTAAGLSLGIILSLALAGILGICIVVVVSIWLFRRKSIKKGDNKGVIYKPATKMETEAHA
Chain of Carbonic anhydrase 4 (Homo sapiens) (P22748 whole entry): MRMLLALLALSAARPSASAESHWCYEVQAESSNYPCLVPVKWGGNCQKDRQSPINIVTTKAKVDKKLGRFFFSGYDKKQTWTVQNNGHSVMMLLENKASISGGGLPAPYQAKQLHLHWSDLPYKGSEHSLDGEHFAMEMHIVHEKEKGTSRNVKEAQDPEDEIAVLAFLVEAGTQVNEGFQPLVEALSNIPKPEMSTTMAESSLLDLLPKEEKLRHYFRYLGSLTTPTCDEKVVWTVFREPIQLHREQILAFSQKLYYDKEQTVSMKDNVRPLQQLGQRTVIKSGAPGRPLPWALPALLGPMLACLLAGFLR
Chain of Carbonic anhydrase 1 (Homo sapiens) (P00915 2-261 limits assumed): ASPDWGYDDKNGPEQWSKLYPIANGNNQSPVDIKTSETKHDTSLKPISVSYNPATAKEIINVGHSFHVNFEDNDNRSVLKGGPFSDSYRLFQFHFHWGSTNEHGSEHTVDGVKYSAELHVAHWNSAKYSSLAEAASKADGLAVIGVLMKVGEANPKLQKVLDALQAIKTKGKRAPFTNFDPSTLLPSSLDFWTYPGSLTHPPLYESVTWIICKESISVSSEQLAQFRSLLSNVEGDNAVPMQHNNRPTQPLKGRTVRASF

Kinact [1] [nM]	Kinact [2] [nM]	Kinact [3] [nM]	Kinact [4] [nM]	Kinact [5] [nM]	Kinact [6] [nM]	Kinact [7] [nM]	Kinact [8] [nM]	Kinact [9] [nM]	Kinact [10] [µM]	Kinact (Helicobacter pylori [11]) [nM]	Kinact (Helicobacter pylori [12]) [nM]	Kinact [13] [nM]	Structure (SMILES)
499	513	62	–	–	–	–	–	–	–	–	–	–	NS(=O)(=O)c1cc(C(=O)O)c(NCC2CCCO2)cc1Cl (stereo unspecified)
4220	–	–	3660	355	4100	603	427	367	3.89	–	–	–	NS(=O)(=O)c1cc2c(cc1Cl)NC(C(Cl)Cl)NS2(=O)=O (stereo unspecified)
50	–	–	0.9	–	24	30	–	–	–	210	128	460	CCN[C@H]1CN(CCCOC)S(=O)(=O)c2sc(S(N)(=O)=O)cc21
–	–	–	–	–	–	–	–	–	–	225	176	140	CC(=O)/N=c1/sc(S(N)(=O)=O)nn1C
